Earlier results on one compound are cited in patent publication US6660299B2, “Modified release pharmaceutical formulation comprising amoxycillin” (Beecham Pharmaceuticals Limited, priority 1999, dated 2003).

The conditions of the data set: in vivo.

With `CC1(C)S[C@@H]2[C@H](NC(=O)[C@H](N)c3ccc(O)cc3)C(=O)N2[C@H]1C(=O)O` [amoxycillin], the excretion half-life is 1.3 h.
